Values quoted from earlier work, collected in US11807631B2, “Herboxidiene derivatives and uses thereof” (Purdue Research Foundation, priority 2017, dated 2023).

Test system: human normal fibroblast cell line, W1-38

Q: With `COC(C(C)O)C(C)C1OC1(C)CC(C)/C=C/C=C(\C)C1OC(CC(=O)O)CCC1C` (stereo not shown) [Herboxidiene/GEX1A] as the compound, how does the cell cycle arrest read?
A: The cell cycle arrest was “induces both G1 and G2/M cell cycle arrest”.
